Experimental findings from patent US20120178695A1, “METHODS OF TREATING NEUROPATHIC PAIN” (priority 2009, published 2012) are described below.

Peptide text beside a SMILES is read from it.

Data set [1] deals with Randall-Selitto paw pressure model. Kind of data set: Randall-Selitto paw pressure model in rats. Type of data set: in vivo, rat. The protocol:
The purpose of this study was to assess the potential effect of GLYX-13 upon the pain threshold in rats using the Randall-Selitto paw pressure model. Groups of 10 male rats (20 for saline vehicle control) were injected with a 20% suspension of yeast in the right hind paw and two hours later, each rat was intravenously administered either saline or GLYX-13 at 1, 5, or 10 mg/kg. The response to mechanical pain stimulus was determined for both the inflamed and non-inflamed paw using an analgesia meter. The amount of force required to elicit paw withdrawal was measured for each rat.

The subject of data set [2] is radiant heat tail flick response. Kind of data set: radiant heat tail flick study in rats. Conditions: male rats; 1, 5, and 10 mg/kg i.v., five minutes after administration. The format is in vivo, rat. The protocol:
The ability of GLYX-13 to block the radiant heat tail flick response was determined in male rats. Groups of 10 male rats were administered either saline or GLYX-13 at 1, 5, or 10 mg/kg via i.v. injection, and five minutes following administration, the tail of each rat was exposed to a radiant heat stimulus. The time to elicit a characteristic tail flick was determined for each rat and the mean response time was determined for each group.

Data set [3] relates to rat formalin model of tonic pain. Kind of data set: rat formalin model of tonic pain. The format is in vivo. Conditions: for antinociceptive efficacy (percentage analgesia, late phase response): subcutaneous before formalin, second phase 10-40 min after formalin. As for the experimental part:
FIG. 1 depicts the antinociceptive actions of GLYX-13 and gabapentin in the rat formalin model of tonic pain. Percentage analgesia is the percentage reduction (on the basis of the area under the curve for vehicle+formalin) in flinches in the late phase response (10-40 min) after intraplantar formalin injection ([…] of 5% formalin) compared with control values arbitrarily set at 100%. Drugs were administered subcutaneously, 15 min before formalin. N=8-10 per group. Mean±SEM.
Antinociceptive actions of GLYX-13 were conducted in a rat formalin assay. Male Sprague-Dawley rats (125-170 g) were manually restrained for a subcutaneous injection of 1.5% formalin ([…] with a 26 ga needle) into the lateral footpad on the plantar surface of the left hind paw. After formalin injections, rats were placed in individual clear plastic cylinders of 30 cm diameter. Drug effects on the second phase of the pain response were monitored with observations conducted over the period between 10 and 40 min after formalin injection. Each group was composed of 10 animals. Vehicle, GLYX-13, or gabapentin was administered subcutaneously at the nape of the neck 10 min before the formalin injection. The time spent licking or elevating the injected limb was quantitated over this […] observation period.

The subject of data set [4] is acetic-acid induced writhing model in mice. Kind of data set: acetic-acid induced writhing model in mice. Type of data set: in vivo, mouse. Conditions: male mice; 1, 5, and 10 mg/kg i.v., 5 min before i.p. 0.5% acetic acid. The protocol: GLYX-13 was tested for antinociceptive activity in an acetic-acid induced writhing model in mice. Groups of 10 male mice were dosed i.v. with either saline or GLYX-13 at 1, 5, or 10 mg/kg. Five minutes later, each mouse was injected i.p. with a solution of 0.5% acetic acid in 0.9% saline and observed for writhing behavior for five minutes. The total number of writhes for each mouse was recorded and the mean number of writhes was compared between the control and GLYX-13 treated groups.
Background: In writhing tests, fewer writhes than in controls are read as antinociception.

The subject of data set [5] is chronic constriction nerve injury model of neuropathic pain. Kind of data set: chronic constriction nerve injury model of neuropathic pain (Example 1). The format is in vivo, rat. The note with it: 5 mg/kg intravenously; 15 and 60 minutes after dosing. As for the experimental part: Next, GLYX-13 was evaluated in the chronic constriction nerve injury model of neuropathic pain; 5 mg/kg GLYX-13. Male Sprague-Dawley rats (200-225 g) were anesthetized with sodium pentobarbitone (6 mg/kg, intraperitoneally) and supplemented as necessary with isoflurane (1-3% in oxygen). Under asceptic conditions, the right sciatic nerve was exposed by blunt dissection at the mid thigh level and 1 cm freed of adhering connective tissue. Four chromic catgut (4.0) ligatures were tied to lightly constrict the nerve at 1 mm intervals. The overlying muscle and skin were sutured and, upon recovery from anesthesia, the rats returned to cages of soft padded bedding and to cages with sawdust bedding after 24 h. At days 5, 7, 9, and 11 post recovery, mechanical […] was assessed with Von Frey filaments (calibration numbers, 3.61-6.10) applied to the plantar surface of the hind paw from below. The filaments were evaluated in ascending order with the threshold for both the ipsilateral and contralateral paws being evaluated. The withdrawal threshold was defined as the lowest force of two or more consecutive Von Frey filaments to elicit a withdrawal reflex. […]
The antinociceptive actions of vehicle or GLYX-13 (5 mg/kg) were evaluated at 15 and 60 minutes after dosing. […]

A short description of data set [6]: ataxia on rotor-rod apparatus. Type of data set: in vivo. The note with it: 30 min after 5, 50, or 500 mg/kg intravenous administration.
Data set [7] relates to rodent peripheral neuropathy model. Put plainly: second peripheral neuropathy study, mechanical allodynia (Example 6). Conditions: 5 mg/kg i.v. The format is in vivo, rat. As for the experimental part:
FIG. 3 depicts the results of groups of 12 male rats subjected to chronic constriction injury to the right hind limb. Following development of peripheral neuropathy, rats were 5 administered GLYX-13, i.v. at 5, 10 or 20 mg/kg on days 12 and 13 post-operative (PO). Rats were tested for mechanical allodynia at 15 and 60 minutes post-dose on day 13 PO. The data represent mechanical allodynia readings at 60 minutes post-dose.
A second peripheral neuropathy study was performed with GLYX-13 in male Sprague- Dawley rats. A peripheral mononeuropathy was induced in the right hind limb and rats were tested for development of mechanical allodynia. Rats that had positively developed neuropathy were administered vehicle (0.9% saline) or GLYX-13 i.v. at doses of 5, 10, or 20 mg/kg on days 12 and 13 PO. Testing for mechanical allodynia was performed at 15 and 60 minutes post-dose. […] In this rodent peripheral neuropathy model, i.v. administration of5 mg/kg GLYX-13 to male rats caused a significant reduction in the sensitivity of the nerve injured hind paw to mechanical allodynia at both 15 and 60 minutes post dose. There was no evidence of any systemic or contralateral effects in this study.

Data set [8] concerns rat model of peripheral neuropathy. Put plainly: rat model of peripheral neuropathy, mechanical allodynia (Example 5). Type of data set: in vivo. Conditions: for group mean withdrawal threshold, nerve-injured paw: approximately 60 min post-dose. The protocol:
FIG. 2 depicts the result of groups of eight male rats subjected to chronic constriction injury to the right hind limb. Following development of peripheral neuropathy, rats were administered GLYX-13, i.v. at 5, 10 or 20 mg/kg on days 12 and 13 post-operative (PO). Rats were tested for mechanical allodynia at 15 and 60 minutes post-dose on day 13 PO. The data represent mechanical allodynia readings at 15 minutes post-dose.
The ability of GLYX-13 to attenuate neuropathic pain was assessed in a rat model of peripheral neuropathy. In this study, four groups of eight male rats were subjected to surgically-induced peripheral neuropathy. Peripheral neuropathy was induced in the right hind limb of male rats by loose ligation of the right sciatic nerve according to the method of Bennett and Xie (Bennett and Xie, 1988). After 8-10 days, a peripheral neuropathy had developed in the right hind limbs as determined by sensitivity to both mechanical allodynia and thermal hyperalgesia. This pilot study consisted of four groups of eight male rats. Days 12-13 post surgery, vehicle (0.9% saline) or GLYX-13 at 5, 10, and 20 mg/kg were administered, and rats were tested for sensitivity to both the thermal stimulus and mechanical allodynia. […] The results for GLYX-13 15 minutes post dose in this rodent neuropathy model are shown FIG. 2.

The test system of data set [9] is intraplantar formalin pain, late phase. Kind of data set: formalin test 8 days after a single dose (Example 7). The format is in vivo, rat. Conditions: 1 dose 3 mg/kg i.v. 8 days before intraplantar formalin (1.5%). The protocol:
FIG. 4 depicts mean±SEM percent analgesia in the late phase (30-50 min) in 3 month old Sprague-Dawley rats pretreated with GLYX-13 (3 mg/kg i.v.), ketamine (10 mg/kg i.v.) or saline vehicle injection (1 mg/ml i.v. tail vein) in freely behaving rats 8 days before left rear paw intraplantar injections (50 μl) of formalin (1.5%). Analgesia is % reduction in licking time, number of flinches, or total pain score (favoring+2×foot up+3×licking time). […] N=10-11 per group. * P<0.05 Fisher PLSD post hoc drug vs. all other groups.
Freely behaving 3 month old Sprague Dawley rats were pretreated with GLYX -13 (3 mg/kg i.v.), ketamine (10 mg/kg i.v.) or saline vehicle injection (1 mg/ml i.v. tail vein) 8 days before left rear paw intraplantar injections (50 μl) of formalin (1.5%).

Data set [10] is described as follows: blood-brain barrier crossing.

Take `C[C@@H](O)[C@H](N)C(=O)N1CCC[C@H]1C(=O)N1CCC[C@H]1C(=O)N[C@H](C(N)=O)[C@@H](C)O` [GLYX-13, L-threonyl-L-prolyl-L-prolyl-L-threonine amide] (H-TPPT-NH2): the “pain threshold (force to elicit paw withdrawal)” value in data set [1] (male rats, yeast-inflamed paw, 1, 5, or 10 mg/kg i.v.) is “no significant effect on the pain threshold”; in data set [1] (rats dosed with 5 and 10 mg/kg i.v.), “Slight, but not statistically significant, increases in the pain threshold”. In addition, the “response time to a radiant heat stimulus (tail flick)” value in data set [2] was “did not result in a change in the response time”. Moreover, the ataxia entry in [3] (rat, in vivo, sc) is “not ataxic at any of the doses examined”; in data set [5], “no evidence of ataxia”. Also, the “antinociceptive efficacy (percentage analgesia, late phase response)” value in [3] is “dose-dependent efficacy”. Further, the “acetic acid induced writhing behavior” value in data set [4] is listed as “did not block acetic acid induced writhing behavior”. Moreover, the “antinociceptive action (mechanical allodynia)” value in [5] is listed as “antinociceptive at both time points”. The “ataxia, rotor-rod apparatus” value in data set [6] was “not found to induce ataxia”. The contralateral effects entry in data set [7] is recorded as “no evidence of any contralateral effects”. The “sensitivity of the nerve-injured paw to mechanical stimuli (Von Frey filaments)” value in data set [7] (free-base, approximately 15 and 60 min post dose) is recorded as “statistically significant reduction in the sensitivity”. The “withdrawal threshold, nerve-injured paw” value in data set [8] (10 mg/kg i.v., 15 minutes post dose) is 5.98 ± 2.25 g; in data set [8] (10 mg/kg i.v., 60 minutes post dose), 7.26 ± 2.19 g; in data set [8] (doses of 5 and 20 mg/kg), “small but distinct increases in withdrawal threshold”. The “responses of the uninjured (contralateral) hind paw” value in data set [8] (5, 10, and 20 mg/kg, any of the time points tested) is listed as “No marked changes”. Moreover, the “group mean withdrawal threshold, nerve-injured paw” value in data set [8] (high dose (20 mg/kg i.v.)) is 2.08 ± 1.21 g; in [8] (low dose group (5 mg/kg i.v.)), 5.04 ± 3.09 g. Also, the “withdrawal threshold in the nerve injured hind paw to mechanical allodynia” value in data set [8] (male rats, 5, 10, and 20 mg/kg) is reported as “marked increase in the withdrawal threshold”. Moreover, the “analgesia in the late phase (30-50 min) of the formalin test” value in data set [9] was “increased analgesia 8 days after administration”. Besides, in data set [10], the “crossing of the blood-brain barrier” value is recorded as “readily crosses the blood-brain barrier in an active form”.
With `NCC1(CC(=O)O)CCCCC1` [gabapentin, reference compound], the “antinociceptive efficacy (percentage analgesia, late phase response)” value in data set [3] was “dose-dependent efficacy”. The ataxia entry in data set [3] (subcutaneous, doses of the formalin study (data not shown)) was “ataxic at the highest dose”.
